A short description of the series: in vitro. The conditions noted are these: human, hela cells, % viability.

For 74 compounds, viability results are on record in paper PMC12040169 (PLOS Biology, 2025).

Usually viability stands for a read-out of living cells in per cent, often relative to untreated cells.

On to `O=C1NC(=O)C(CC(=O)N2CCCC3(CCN(C(=O)c4cc(F)c(F)cc4F)C3)C2)N1` (centres unmarked) [CBK131550], for which the viability at 28.5 h, 10 µM came out at 96.2%.
On the same count and under the same terms, to `Cc1cn(CC(=O)N2CCCC3(CCN(C(=O)c4cc(F)c(F)cc4F)C3)C2)c(=O)[nH]c1=O` (centres unmarked) [CBK131561] belongs 101%; to `COc1cc(C(=O)N2CCCC3(CCN(C(=O)c4cc(F)c(F)cc4F)C3)C2)cc(OC)c1OC` (centres unmarked) [CBK131563], 106%; to `O=C(Cc1c[nH]c2ccccc12)N1CCC2(CCCN(C(=O)c3cccc(C(F)(F)F)c3)C2)C1` (centres unmarked) [CBK131578], 97.2%.
As to `O=C(Cc1c[nH]c2ccccc12)N1CCC2(CCCN(C(=O)c3ccc(OC(F)(F)F)cc3)C2)C1` (centres unmarked) [CBK131579], the viability at 28.5 h, 10 µM turned out to be 97.8%.
As for `O=C(Cc1c[nH]c2ccccc12)N1CCC2(CCCN(C(=O)c3cccnc3)C2)C1` (centres unmarked) [CBK131604], the viability at 28.5 h, 10 µM worked out at 103%.
`O=C(Cc1ccc(Cl)c(Cl)c1)N1CCCC2(CCN(C(=O)c3ccoc3)C2)C1` (centres unmarked) [CBK131619]: the viability at 28.5 h, 10 µM turned out to be 87.4%.
With `O=C(/C=C/c1ccc2c(c1)OCO2)N1CCCC2(CCN(C(=O)c3ccoc3)C2)C1` (centres unmarked) [CBK131622], the viability at 28.5 h, 10 µM turned out to be 92.3%.
Same read-out and setting: to `O=C(c1cc[nH]c1)N1CCCC2(CCN(C(=O)c3ccoc3)C2)C1` (centres unmarked) [CBK131629] belongs 105%; to `COc1cc(C(=O)N2CCCC3(CCN(C(=O)c4ccoc4)C3)C2)cc(OC)c1OC` (centres unmarked) [CBK131637], 114%; to `COc1ccc(C(=O)N2CCC3(CCCN(C(=O)c4ccco4)C3)C2)cc1OC` (centres unmarked) [CBK131647], 98.2%.
Take `COc1ccc(C(=O)N2CCC3(CCCN(C(=O)c4cscn4)C3)C2)cc1OC` (centres unmarked) [CBK131659]: the viability at 28.5 h, 10 µM was found to be 92%.
On the same count and under the same terms, the value for `COc1ccc(C(=O)N2CCC3(CCCN(C(=O)CCSC)C3)C2)cc1OC` (centres unmarked) [CBK131661] was 111%.
For `COc1ccc(C(=O)N2CCC3(CCCN(C(=O)c4ccc5occc5c4)C3)C2)cc1OC` (centres unmarked) [CBK131665], the viability at 28.5 h, 10 µM was 97.6%.
Regarding `COc1ccc(C(=O)N2CCC3(CCCN(C(=O)c4cc(OC)c(OC)c(OC)c4)C3)C2)cc1OC` (centres unmarked) [CBK131667], the viability at 28.5 h, 10 µM came to 86.7%.
Consider `COc1ccc(C(=O)N2CCC3(CCCN(C(=O)c4cccnc4)C3)C2)cc1OC` (centres unmarked) [CBK131668], for which the viability at 28.5 h, 10 µM came to 97.8%.
Still for that read-out and setting: to `COc1ccc(C(=O)N2CCC3(CCCN(C(=O)c4c(F)cccc4F)C3)C2)cc1OC` (centres unmarked) [CBK131669] belongs 94.1%.
Regarding `CCOC(=O)N1CCC2(CC1)OCc1cc(C#N)ccc1O2` [CBK131678], the viability at 28.5 h, 10 µM (bulk resorufin, single well) is 87%.
For `O=C(O)CSc1nnc(-c2ccco2)n1-c1ccccc1` [CBK131685], the viability at 28.5 h, 10 µM was found to be 85.9%.
On to `O=C(CCCOc1ccc(Cl)cc1Cl)Nc1ccc(O)cc1C(=O)O` [CBK131688], for which the viability at 28.5 h, 10 µM worked out at 104%.
On to `O=C(O)COc1ccc(NC(=O)CSCc2ccc(Cl)cc2Cl)cc1` [CBK131700], for which the viability at 28.5 h, 10 µM was 89.2%.
For the compound `Cc1cc(Cl)ccc1OCC(=O)Nc1ccc(O)cc1C(=O)O` [CBK131706], the viability at 28.5 h, 10 µM is 86%.
`COc1ccc(Nc2nc(-c3ccccc3)c(C)s2)c(OC)c1` [CBK131709]: the viability at 28.5 h, 10 µM was 106%.
For the compound `COC(=O)c1ccccc1NC(=O)CSCc1ccc(Cl)cc1Cl` [CBK131712], the viability at 28.5 h, 10 µM was found to be 86.2%.
Same read-out and setting: to `O=C(c1ccc(OC(F)(F)F)cc1)N1CCC2(CCN(C(=O)c3ccoc3)C2)C1` (centres unmarked) [CBK131735] belongs 92.8%.
On to `COc1ccc(C(=O)N2CCC3(CCN(C(=O)CCSC)C3)C2)cc1OC` (centres unmarked) [CBK131786], for which the viability at 28.5 h, 10 µM amounted to 105%.
For the compound `COc1ccc(C(=O)N2CCC3(CCN(C(=O)c4ccc5[nH]c(=O)[nH]c5c4)C3)C2)cc1OC` (centres unmarked) [CBK131793], the viability at 28.5 h, 10 µM amounted to 100%.
`COc1ccc(OC(=O)Cc2ccccc2)cc1` [CBK131826]: the viability at 28.5 h, 10 µM (bulk resorufin, single well) turned out to be 117%.
For `COc1cc(-c2cc(-c3ccccc3)nc(SCC(=O)O)c2C#N)cc(OC)c1OC` [CBK131867], the viability at 28.5 h, 10 µM was 99.3%.
`Cc1cc(C)c2c(N)c(C(=O)O)sc2n1` [CBK131868]: the viability at 28.5 h, 10 µM turned out to be 87.8%.
For `CC(=O)c1sc2nc(C)cc(C)c2c1N` [CBK131882], the viability at 28.5 h, 10 µM came out at 90.5%.
Consider `N#Cc1c(C(F)(F)F)cc(-c2ccc(Cl)cc2)nc1SCC(=O)O` [CBK131885], for which the viability at 28.5 h, 10 µM is 97.5%.
For `CC(=O)c1cccc(-n2c(CCC(=O)O)ccc2-c2ccc(Br)cc2)c1` [CBK131888], the viability at 28.5 h, 10 µM is 98.2%.
Same read-out and setting: to `NS(=O)(=O)c1ccc(Nc2nc(-c3ccccc3)c(CC(=O)O)s2)cc1` [CBK131899] belongs 91.6%; to `Cc1nc(Oc2ccccc2)c2c3c(sc2n1)CCCC3` [CBK131919], 101%.
With `Cc1nc(NCCO)c2c3c(sc2n1)CCCC3` [CBK131920], the viability at 28.5 h, 10 µM is 90.1%.
As for `O=C(CSCc1ccc(Cl)cc1Cl)Nc1nccs1` [CBK131921], the viability at 28.5 h, 10 µM stood at 103%.
Turning to `O=C(Cc1ccc(F)cc1F)N1CCC(Sc2ccc(-c3ccccc3)cc2)CC1` [CBK131950], the viability at 28.5 h, 10 µM was 105%.
For the compound `O=C(c1cc(F)c(F)cc1F)N1CCC2(CCCN(Cc3ccc4ccccc4c3)C2)C1` (centres unmarked) [CBK131998], the viability at 28.5 h, 10 µM is 97.8%.
As for `O=C(c1cc(F)c(F)cc1F)N1CCC2(CCCN(C/C=C/c3ccccc3)C2)C1` (centres unmarked) [CBK132001], the viability at 28.5 h, 10 µM was found to be 107%.
`CN(C)CCCN1CCCC2(CCN(C(=O)c3cc(F)c(F)cc3F)C2)C1` (centres unmarked) [CBK132005]: the viability at 28.5 h, 10 µM turned out to be 96.5%.
`O=C(CN1CCCC2(CCN(C(=O)c3cc(F)c(F)cc3F)C2)C1)Nc1ccc(F)c(Cl)c1` (centres unmarked) [CBK132008]: the viability at 28.5 h, 10 µM stood at 96.9%.
With `O=C(c1cc(F)c(F)cc1F)N1CCC2(CCCN(Cc3cc(=O)[nH]c(=O)[nH]3)C2)C1` (centres unmarked) [CBK132010], the viability at 28.5 h, 10 µM stood at 101%.
`O=C(c1cc(F)c(F)cc1F)N1CCC2(CCCN(CCN3CCOCC3)C2)C1` (centres unmarked) [CBK132015]: the viability at 28.5 h, 10 µM stood at 82.8%.
On the same count and under the same terms, to `CCC1(CC)OC(NC(C)c2ccccc2F)=NC1=O` (centres unmarked) [CBK132018] belongs 87.1%; to `O=C(CN1CCCC2(CCN(C(=O)Cc3c[nH]c4ccccc34)C2)C1)Nc1ccc(F)c(Cl)c1` (centres unmarked) [CBK132047], 108%.
For the compound `O=C(Cc1c[nH]c2ccccc12)N1CCC2(CCCN(Cc3cc(=O)[nH]c(=O)[nH]3)C2)C1` (centres unmarked) [CBK132049], the viability at 28.5 h, 10 µM was 102%.
Turning to `Cc1ccc2cc(CN(Cc3ccc(N(C)C)cc3)C(=O)NC3CCCCC3)c(=O)[nH]c2c1C` [CBK132070], the viability at 28.5 h, 10 µM was 97.3%.
For the compound `COc1ccc2cc(CN(CCNC(=O)OC(C)(C)C)C(=O)NC3CCCCC3)c(=O)[nH]c2c1` [CBK132074], the viability at 28.5 h, 10 µM amounted to 101%.
For `Cc1ccc2cc(CN(CCNC(=O)OC(C)(C)C)C(=O)NCc3ccccc3)c(=O)[nH]c2c1C` [CBK132097], the viability at 28.5 h, 10 µM came out at 90.2%.
On the same count and under the same terms, the value for `O=C(c1cc(F)c(F)cc1F)N1CCC2(CCN(Cc3cccc(C(F)(F)F)c3)C2)C1` (centres unmarked) [CBK132130] was 102%; that for `NC(=O)CN1CCC2(CCN(C(=O)c3cc(F)c(F)cc3F)C2)C1` (centres unmarked) [CBK132140] was 86.6%; that for `O=C(c1cc(F)c(F)cc1F)N1CCC2(CCN(Cc3cc(=O)[nH]c(=O)[nH]3)C2)C1` (centres unmarked) [CBK132141] was 91.4%.
Still for that read-out and setting: the value for `COc1ccc(C(=O)N2CCC3(CCN(Cc4ccc(OC(F)(F)F)cc4)C3)C2)cc1OC` (centres unmarked) [CBK132148] was 89%; that for `COc1ccc(C(=O)N2CCC3(CCN(Cc4cc(OC)c(OC)c(OC)c4)C3)C2)cc1OC` (centres unmarked) [CBK132149] was 100%; that for `COc1ccc(C(=O)N2CCC3(CCN(Cc4ccc(Cl)c(Cl)c4)C3)C2)cc1OC` (centres unmarked) [CBK132150] was 97.3%.
As to `COc1ccc(C(=O)N2CCC3(CCN(Cc4c(F)cccc4F)C3)C2)cc1OC` (centres unmarked) [CBK132152], the viability at 28.5 h, 10 µM worked out at 92.8%.
The same measure, in the same setting: to `COc1ccc(C(=O)N2CCC3(CCN(CCCCC4NC(=O)NC4=O)C3)C2)cc1OC` (centres unmarked) [CBK132169] belongs 83%.
For `CCOC(=O)C1(c2ccccc2)CCN(C(=O)Cc2ccsc2)CC1` [CBK132172], where the note is “bulk resorufin, single well”, the viability at 28.5 h, 10 µM is 93%.
Regarding `CCOC(=O)C1(c2ccccc2)CCN(C(=O)CCSC)CC1` [CBK132184], for the setting “bulk resorufin, single well”, the viability at 28.5 h, 10 µM stood at 113%.
In the case of `CCOC(=O)C1(c2ccccc2)CCN(C(=O)c2cccc3[nH]ccc23)CC1` [CBK132193], the viability at 28.5 h, 10 µM (bulk resorufin, single well) is 95.7%.
Take `CCOC(=O)C1(c2ccccc2)CCN(C(=O)CCC(=O)O)CC1` [CBK132197]: the viability at 28.5 h, 10 µM (bulk resorufin, single well) is 94.7%.
Still for that read-out and setting: to `CCOC(=O)C1(c2ccccc2)CCN(C(=O)CCC(=O)OC)CC1` [CBK132198] belongs 79.8%; to `CCOC(=O)C1(c2ccccc2)CCN(C(=O)c2ccc(S(N)(=O)=O)cc2)CC1` [CBK132200], 99.7%; to `CCOC(=O)C1(c2ccccc2)CCN(C(=O)C(c2ccccc2)c2ccccc2)CC1` [CBK132202], 100%.
In the case of `CCOC(=O)C1(c2ccccc2)CCN(C(=O)c2ccc3nc[nH]c3c2)CC1` [CBK132208], the viability at 28.5 h, 10 µM (bulk resorufin, single well) turned out to be 103%.
The same measure, in the same setting: to `CCOC(=O)C1(c2ccccc2)CCN(C(=O)CCN2CCN(C)CC2)CC1` [CBK132211] belongs 86.2%.
Regarding `CCOc1cc(C(O)c2nnc(-c3ccccc3)o2)ccc1OCC(C)C` (centres unmarked) [CBK132385], the viability at 28.5 h, 10 µM turned out to be 89.1%.
Consider `N#Cc1ccc(-n2nc(-c3ccccc3)c3ccccc3c2=O)c([N+](=O)[O-])c1` [CBK132567], for which the viability at 28.5 h, 10 µM was found to be 96.6%.
For `O=C(c1ccoc1)N1CCC2(CCCN(Cc3ccc4ccccc4c3)C2)C1` (centres unmarked) [CBK132811], the viability at 28.5 h, 10 µM is 90.1%.
Still for that read-out and setting: to `NC(=O)CCN1CCCC2(CCN(C(=O)c3ccoc3)C2)C1` (centres unmarked) [CBK132816] belongs 96.9%; to `O=C(c1ccoc1)N1CCC2(CCCN(CCCn3c(=O)[nH]c4ccccc43)C2)C1` (centres unmarked) [CBK132818], 90.1%; to `O=C(c1ccoc1)N1CCC2(CCCN(Cc3cc(=O)[nH]c(=O)[nH]3)C2)C1` (centres unmarked) [CBK132823], 97.8%.
In the case of `CSCCN1CCCC2(CCN(C(=O)c3ccoc3)C2)C1` (centres unmarked) [CBK132835], the viability at 28.5 h, 10 µM was 88.7%.
